Results reported in ChEMBL document CHEMBL4811261, “Synthesis and biological evaluation of novel benzo[a]pyridazino[3,4-c]phenazine derivatives” (Bioorg Med Chem Lett, 2021).

System: Limosilactobacillus fermentum
Experiment: Antibacterial activity against Lactobacillus fermentum measured by broth microdilution method
Format: functional, organism-based

IC50 | SMILES
> 100 µM | CN1N=C(c2cccc(Br)c2)C(c2cccc(Br)c2)c2c1c1ccccc1c1nc3ccccc3nc21 (stereo not given)
> 100 µM | CN1N=C(c2ccc(Br)cc2)C(c2ccc(Br)cc2)c2c1c1ccccc1c1nc3ccccc3nc21 (stereo not given)
> 100 µM | CN1N=C(c2ccc(Cl)cc2)C(c2ccc(Cl)cc2)c2c1c1ccccc1c1nc3ccccc3nc21 (stereo not given)
> 100 µM | CN1N=C(c2ccc(S(C)(=O)=O)cc2)C(c2ccc(S(C)(=O)=O)cc2)c2c1c1ccccc1c1nc3ccccc3nc21 (stereo not given)

System: KB
Experiment: Cytotoxicity against human KB cells assessed as cell viability measured by MTT assay
Format: functional, cell-based

SMILES | IC50
Cc1c2ccncc2c(C)c2c1[nH]c1ccccc12 [ELLIPTECINE] | 1.26 µM
CN1N=C(c2cccc(Br)c2)C(c2cccc(Br)c2)c2c1c1ccccc1c1nc3ccccc3nc21 (stereo not given) | > 100 µM
CN1N=C(c2ccc(Br)cc2)C(c2ccc(Br)cc2)c2c1c1ccccc1c1nc3ccccc3nc21 (stereo not given) | > 100 µM
CN1N=C(c2ccc(Cl)cc2)C(c2ccc(Cl)cc2)c2c1c1ccccc1c1nc3ccccc3nc21 (stereo not given) | > 100 µM
CN1N=C(c2ccc(S(C)(=O)=O)cc2)C(c2ccc(S(C)(=O)=O)cc2)c2c1c1ccccc1c1nc3ccccc3nc21 (stereo not given) | 62.5 µM

System: HEK293
Experiment: Cytotoxicity against human HEK293 cells assessed as cell viability measured by MTT assay
Format: cell-based

SMILES | IC50
Cc1c2ccncc2c(C)c2c1[nH]c1ccccc12 [ELLIPTECINE] | 6.58 µM
CN1N=C(c2cccc(Br)c2)C(c2cccc(Br)c2)c2c1c1ccccc1c1nc3ccccc3nc21 (stereo not given) | > 100 µM
CN1N=C(c2ccc(Br)cc2)C(c2ccc(Br)cc2)c2c1c1ccccc1c1nc3ccccc3nc21 (stereo not given) | > 100 µM
CN1N=C(c2ccc(Cl)cc2)C(c2ccc(Cl)cc2)c2c1c1ccccc1c1nc3ccccc3nc21 (stereo not given) | > 100 µM
CN1N=C(c2ccc(S(C)(=O)=O)cc2)C(c2ccc(S(C)(=O)=O)cc2)c2c1c1ccccc1c1nc3ccccc3nc21 (stereo not given) | > 100 µM

System: Salmonella enterica
Experiment: Antibacterial activity against Salmonella enterica measured by broth microdilution method
Format: functional, organism-based

IC50 | SMILES
> 100 µM | CN1N=C(c2cccc(Br)c2)C(c2cccc(Br)c2)c2c1c1ccccc1c1nc3ccccc3nc21 (stereo not given)
> 100 µM | CN1N=C(c2ccc(Br)cc2)C(c2ccc(Br)cc2)c2c1c1ccccc1c1nc3ccccc3nc21 (stereo not given)
> 100 µM | CN1N=C(c2ccc(Cl)cc2)C(c2ccc(Cl)cc2)c2c1c1ccccc1c1nc3ccccc3nc21 (stereo not given)
> 100 µM | CN1N=C(c2ccc(S(C)(=O)=O)cc2)C(c2ccc(S(C)(=O)=O)cc2)c2c1c1ccccc1c1nc3ccccc3nc21 (stereo not given)

System: Bacillus subtilis
Experiment: Antibacterial activity against Bacillus subtilis measured by broth microdilution method
Format: functional, organism-based

IC50 | SMILES
84.6 µM | CN1N=C(c2cccc(Br)c2)C(c2cccc(Br)c2)c2c1c1ccccc1c1nc3ccccc3nc21 (stereo not given)
5.91 µM | CN1N=C(c2ccc(Br)cc2)C(c2ccc(Br)cc2)c2c1c1ccccc1c1nc3ccccc3nc21 (stereo not given)
0.3 µM | CC1(C)S[C@@H]2[C@H](NC(=O)[C@H](N)c3ccccc3)C(=O)N2[C@H]1C(=O)O [AMPICILLIN]
> 100 µM | CN1N=C(c2ccc(Cl)cc2)C(c2ccc(Cl)cc2)c2c1c1ccccc1c1nc3ccccc3nc21 (stereo not given)
> 100 µM | CN1N=C(c2ccc(S(C)(=O)=O)cc2)C(c2ccc(S(C)(=O)=O)cc2)c2c1c1ccccc1c1nc3ccccc3nc21 (stereo not given)

System: HepG2
Experiment: Cytotoxicity against human HepG2 cells assessed as cell viability measured by MTT assay
Format: functional, cell-based

SMILES | IC50
Cc1c2ccncc2c(C)c2c1[nH]c1ccccc12 [ELLIPTECINE] | 1.34 µM
CN1N=C(c2cccc(Br)c2)C(c2cccc(Br)c2)c2c1c1ccccc1c1nc3ccccc3nc21 (stereo not given) | > 100 µM
CN1N=C(c2ccc(Br)cc2)C(c2ccc(Br)cc2)c2c1c1ccccc1c1nc3ccccc3nc21 (stereo not given) | > 100 µM
CN1N=C(c2ccc(Cl)cc2)C(c2ccc(Cl)cc2)c2c1c1ccccc1c1nc3ccccc3nc21 (stereo not given) | > 100 µM
CN1N=C(c2ccc(S(C)(=O)=O)cc2)C(c2ccc(S(C)(=O)=O)cc2)c2c1c1ccccc1c1nc3ccccc3nc21 (stereo not given) | 44.7 µM

System: not listed separately
Experiment: Cytotoxicity against human Lu1 cells assessed as cell viability measured by MTT assay
Format: functional, cell-based

SMILES | IC50
Cc1c2ccncc2c(C)c2c1[nH]c1ccccc12 [ELLIPTECINE] | 1.83 µM
CN1N=C(c2cccc(Br)c2)C(c2cccc(Br)c2)c2c1c1ccccc1c1nc3ccccc3nc21 (stereo not given) | > 100 µM
CN1N=C(c2ccc(Br)cc2)C(c2ccc(Br)cc2)c2c1c1ccccc1c1nc3ccccc3nc21 (stereo not given) | > 100 µM
CN1N=C(c2ccc(Cl)cc2)C(c2ccc(Cl)cc2)c2c1c1ccccc1c1nc3ccccc3nc21 (stereo not given) | > 100 µM
CN1N=C(c2ccc(S(C)(=O)=O)cc2)C(c2ccc(S(C)(=O)=O)cc2)c2c1c1ccccc1c1nc3ccccc3nc21 (stereo not given) | > 100 µM

System: Staphylococcus aureus
Experiment: Antibacterial activity against Staphylococcus aureus measured by broth microdilution method
Format: functional, organism-based

IC50 | SMILES
84.4 µM | CN1N=C(c2cccc(Br)c2)C(c2cccc(Br)c2)c2c1c1ccccc1c1nc3ccccc3nc21 (stereo not given)
4.21 µM | CN1N=C(c2ccc(Br)cc2)C(c2ccc(Br)cc2)c2c1c1ccccc1c1nc3ccccc3nc21 (stereo not given)
0.02 µM | CC1(C)S[C@@H]2[C@H](NC(=O)[C@H](N)c3ccccc3)C(=O)N2[C@H]1C(=O)O [AMPICILLIN]
> 100 µM | CN1N=C(c2ccc(Cl)cc2)C(c2ccc(Cl)cc2)c2c1c1ccccc1c1nc3ccccc3nc21 (stereo not given)
> 100 µM | CN1N=C(c2ccc(S(C)(=O)=O)cc2)C(c2ccc(S(C)(=O)=O)cc2)c2c1c1ccccc1c1nc3ccccc3nc21 (stereo not given)

System: MCF7
Experiment: Cytotoxicity against human MCF7 cells assessed as cell viability measured by MTT assay
Format: functional, cell-based

SMILES | IC50
Cc1c2ccncc2c(C)c2c1[nH]c1ccccc12 [ELLIPTECINE] | 2.48 µM
CN1N=C(c2cccc(Br)c2)C(c2cccc(Br)c2)c2c1c1ccccc1c1nc3ccccc3nc21 (stereo not given) | > 100 µM
CN1N=C(c2ccc(Br)cc2)C(c2ccc(Br)cc2)c2c1c1ccccc1c1nc3ccccc3nc21 (stereo not given) | > 100 µM
CN1N=C(c2ccc(Cl)cc2)C(c2ccc(Cl)cc2)c2c1c1ccccc1c1nc3ccccc3nc21 (stereo not given) | > 100 µM
CN1N=C(c2ccc(S(C)(=O)=O)cc2)C(c2ccc(S(C)(=O)=O)cc2)c2c1c1ccccc1c1nc3ccccc3nc21 (stereo not given) | 62.7 µM

System: Escherichia
Experiment: Antibacterial activity against Escherichia measured by broth microdilution method
Format: functional, organism-based

IC50 | SMILES
> 100 µM | CN1N=C(c2cccc(Br)c2)C(c2cccc(Br)c2)c2c1c1ccccc1c1nc3ccccc3nc21 (stereo not given)
> 100 µM | CN1N=C(c2ccc(Br)cc2)C(c2ccc(Br)cc2)c2c1c1ccccc1c1nc3ccccc3nc21 (stereo not given)
> 100 µM | CN1N=C(c2ccc(Cl)cc2)C(c2ccc(Cl)cc2)c2c1c1ccccc1c1nc3ccccc3nc21 (stereo not given)
> 100 µM | CN1N=C(c2ccc(S(C)(=O)=O)cc2)C(c2ccc(S(C)(=O)=O)cc2)c2c1c1ccccc1c1nc3ccccc3nc21 (stereo not given)

System: Candida albicans
Experiment: Antifungal activity against Candida albicans measured by broth microdilution method
Format: functional, organism-based

IC50 | SMILES
> 100 µM | CN1N=C(c2cccc(Br)c2)C(c2cccc(Br)c2)c2c1c1ccccc1c1nc3ccccc3nc21 (stereo not given)
> 100 µM | CN1N=C(c2ccc(Br)cc2)C(c2ccc(Br)cc2)c2c1c1ccccc1c1nc3ccccc3nc21 (stereo not given)
> 100 µM | CN1N=C(c2ccc(Cl)cc2)C(c2ccc(Cl)cc2)c2c1c1ccccc1c1nc3ccccc3nc21 (stereo not given)
> 100 µM | CN1N=C(c2ccc(S(C)(=O)=O)cc2)C(c2ccc(S(C)(=O)=O)cc2)c2c1c1ccccc1c1nc3ccccc3nc21 (stereo not given)

System: Pseudomonas aeruginosa
Experiment: Antibacterial activity against Pseudomonas aeruginosa measured by broth microdilution method
Format: functional, organism-based

IC50 | SMILES
> 100 µM | CN1N=C(c2cccc(Br)c2)C(c2cccc(Br)c2)c2c1c1ccccc1c1nc3ccccc3nc21 (stereo not given)
> 100 µM | CN1N=C(c2ccc(Br)cc2)C(c2ccc(Br)cc2)c2c1c1ccccc1c1nc3ccccc3nc21 (stereo not given)
> 100 µM | CN1N=C(c2ccc(Cl)cc2)C(c2ccc(Cl)cc2)c2c1c1ccccc1c1nc3ccccc3nc21 (stereo not given)
> 100 µM | CN1N=C(c2ccc(S(C)(=O)=O)cc2)C(c2ccc(S(C)(=O)=O)cc2)c2c1c1ccccc1c1nc3ccccc3nc21 (stereo not given)
